Where “and” joins values, the source holds several entries; their conditions need not be identical. Equal entries are not always repeated. Where two headings read alike, the source gives them in different places.
Tests used:
[1] = Disposition of DMAE after gavage, rats and mice summarised together; format: in vivo, Wistar Han rats and B6C3F1 mice; conditions: range over groups
[2] = Effect of DMAE on serum choline levels and conversion of DMAE to choline; format: in vivo, Wistar Han rats; conditions: male rats, gavage 500 mg/kg [^14C]DMAE, 1 h post-dose (remained up to 12 h); pre-dose approximately 17 ng/mL
[3] = Disposition of [^14C]DMAE after single gavage administration, strain comparison; format: in vivo; conditions: male Sprague Dawley rats, gavage 500 mg/kg, 24 h
[4] = Radiochemical HPLC profiling of urine after [^14C]DMAE; conditions: Oral
[5] = male Wistar rats, IV 11 mg/kg, 6 minutes post-dosing; ref Dormard et al. (1975); cited from earlier work
[6] = not given; remark: listed apart in the source
[7] = Radiochemical HPLC profiling of urine after [^14C]DMAE; format: in vivo, Harlan Sprague Dawley rats
[8] = male Wistar Han rats, gavage 500 mg/kg, 24 h
[9] = male Wistar Han rats, gavage 500 mg/kg, 72 h
[10] = female B6C3F1 mice, gavage 10 mg/kg, 24 h
[11] = female B6C3F1 mice, gavage 10 mg/kg, 24 h, listed as [^14C]DMAE, 10 mg/kg
[12] = female B6C3F1 mice, gavage 100 mg/kg, 24 h
[13] = female B6C3F1 mice, gavage 100 mg/kg, 24 h, listed as [^14C]DMAE, 100 mg/kg
[14] = female B6C3F1 mice, gavage 500 mg/kg, 24 h
[15] = female B6C3F1 mice, gavage 500 mg/kg, 24 h, listed as [^14C]DMAE, 500 mg/kg
[16] = female B6C3F1 mice, gavage 500 mg/kg, 72 h
[17] = male B6C3F1 mice, gavage 500 mg/kg, 24 h

Compound: CN(C)CCO [DMAE, Dimethylaminoethanol]
- % Dose Recovered, Feces [8]: 0.518 ± 0.472 % dose
- % Dose Recovered, Tissues and GI Tract (includes contents) [8]: 24.3 ± 2.10 % dose
- % Dose Recovered, Total Recovered [8]: 92.1 ± 1.90 % dose
- % Dose Recovered, VOCs [8]: 0.198 ± 0.038 % dose
- percent radioactivity remaining in all tissues, excluding GI tract [8]: ~21%
- % Dose Recovered, Urine (male Wistar Han rats, gavage 500 mg/kg, 24 h, listed as [^14C]DMAE, 500 mg/kg): 62 % dose and 62.1 ± 1.50 % dose
- % Dose Recovered, Feces [9]: 1.11 ± 1.01 % dose
- % Dose Recovered, Tissues and GI Tract (includes contents) [9]: 14.5 ± 1.20 % dose
- % Dose Recovered, Total Recovered [9]: 92.0 ± 2.20 % dose
- % Dose Recovered, Urine [9]: 68.6 ± 2.00 % dose
- administered dose found as expired CO2 (male Wistar Han rats, gavage, all dose levels (10, 100, 500 mg/kg), 24 h): 4–5%
- total administered dose recovered (male and female Wistar Han rats, oral administration, range over groups): 92–98%
- excretion in urine (rats, gavage, range over groups): 57–64%
- excreted as exhaled CO2 (rats, range over groups): ≤ 6%
- excreted as exhaled CO2 [1]: 3–22%
- excreted in urine [1]: 16–69%
- tissue retention [1]: 21–44%
- mean serum choline level [2]: ~23 ng/mL
- % Dose Recovered, CO2 [3]: 2.94 ± 0.230 % dose
- % Dose Recovered, Feces [3]: 0.538 ± 0.335 % dose
- % Dose Recovered, Tissues and GI Tract (includes contents) [3]: 34.1 ± 1.80 % dose
- % Dose Recovered, Total Recovered [3]: 98.3 ± 3.50 % dose
- % Dose Recovered, Urine [3]: 60.4 ± 3.80 % dose
- % Dose Recovered, VOCs [3]: 0.220 ± 0.047 % dose
- Estimated percentage of area of DMAE peak in urine chromatogram ([4]; Mouse/Female, [^14C]DMAE 10 mg/kg): 8%
- Estimated percentage of area of DMAE peak in urine chromatogram ([4]; Mouse/Female, [^14C]DMAE 100 mg/kg): 82%
- Estimated percentage of area of DMAE peak in urine chromatogram ([4]; Mouse/Female, [^14C]DMAE 500 mg/kg): 66%
- Estimated percentage of area of DMAE peak in urine chromatogram ([4]; Mouse/Male, [^14C]DMAE 500 mg/kg): 100%
- % of IV dose present in the plasma [5]: 0.16%
- administered dose recovered in tissues (excluding GI tract) ([6]; B6C3F1 mice, oral, 24 h post-exposure, range over groups): 26–44%
- % Dose Recovered, Feces [6, 10]: 1.94 ±0.490 % dose
- % Dose Recovered, Tissues and GI Tract (includes contents) [6, 10]: 57.6 ± 3.00 % dose
- % Dose Recovered, Total Recovered [6, 10]: 99.3 ± 1.60 % dose
- % Dose Recovered, VOCs [6, 10]: 1.66 ± 0.340 % dose
- percent radioactivity remaining in all tissues, excluding GI tract [6, 10]: ~44%
- % Dose Recovered, CO2 [6, 11]: 22 % dose and 22.3 ± 3.68 % dose
- % Dose Recovered, Urine [6, 11]: 16 % dose and 15.8 ± 4.00 % dose
- % Dose Recovered, Feces [6, 12]: 1.10 ± 0.410 % dose
- % Dose Recovered, Tissues and GI Tract (includes contents) [6, 12]: 44.5 ± 1.70 % dose
- % Dose Recovered, Total Recovered [6, 12]: 81.6 ± 4.40 % dose
- % Dose Recovered, VOCs [6, 12]: 1.27 ± 0.160 % dose
- percent radioactivity remaining in all tissues, excluding GI tract [6, 12]: ~30%
- % Dose Recovered, CO2 [6, 13]: 16 % dose and 15.5 ± 0.600 % dose
- % Dose Recovered, Urine [6, 13]: 18 % dose and 17.9 ± 3.90 % dose
- % Dose Recovered, Feces [6, 14]: 0.713 ± 0.273 % dose
- % Dose Recovered, Tissues and GI Tract (includes contents) [6, 14]: 38.4 ± 16.1 % dose
- % Dose Recovered, Total Recovered [6, 14]: 97.1 ± 15.2 % dose
- % Dose Recovered, VOCs [6, 14]: 1.51 ± 0.210 % dose
- percent radioactivity remaining in all tissues, excluding GI tract [6, 14]: ~32%
- % Dose Recovered, CO2 [6, 15]: 13 % dose and 13.2 ± 1.80 % dose
- % Dose Recovered, Urine [6, 15]: 43 % dose and 43.4 ± 11.5 % dose
- % Dose Recovered, CO2 [6, 16]: 21.0 ± 2.20 % dose
- % Dose Recovered, Feces [6, 16]: 2.24 ± 1.31 % dose
- % Dose Recovered, Tissues and GI Tract (includes contents) [6, 16]: 19.0 ± 3.70 % dose
- % Dose Recovered, Total Recovered [6, 16]: 97.2 ± 6.40 % dose
- % Dose Recovered, Urine [6, 16]: 53.8 ± 3.90 % dose
- % Dose Recovered, VOCs [6, 16]: 1.08 ± 0.190 % dose
- total administered dose recovered in tissues [6, 16]: 16%
- radioactivity in feces and VOCs ([6]; female B6C3F1 mice, gavage, across all dose groups): < 2%
- % Dose Recovered, CO2 [6, 17]: 17.8 ± 1.10 % dose
- % Dose Recovered, Feces [6, 17]: 13.7 ± 14.9 % dose
- % Dose Recovered, Tissues and GI Tract (includes contents) [6, 17]: 31.8 ± 1.50 % dose
- % Dose Recovered, Total Recovered [6, 17]: 92.1 ± 13.6 % dose
- % Dose Recovered, Urine [6, 17]: 27.1 ± 20.0 % dose
- % Dose Recovered, VOCs [6, 17]: 1.75 ± 0.319 % dose
- excretion in urine ([6]; mice, gavage, range over groups): 16–43%
- excreted as exhaled CO2 ([6]; mice, range over groups): 13–22%
- total percentage of administered dose recovered ([6]; mouse studies, range over groups): 82–99%
- Estimated percentage of area of DMAE peak in urine chromatogram ([7]; Rat/Female, [^14C]DMAE 500 mg/kg, Oral): 55%
- Estimated percentage of area of DMAE peak in urine chromatogram ([7]; Rat/Male, [^14C]DMAE 10 mg/kg, IV): 3%
- Estimated percentage of area of DMAE peak in urine chromatogram ([7]; Rat/Male, [^14C]DMAE 10 mg/kg, Oral): 95%
- Estimated percentage of area of DMAE peak in urine chromatogram ([7]; Rat/Male, [^14C]DMAE 100 mg/kg, Oral): 56%
- Estimated percentage of area of DMAE peak in urine chromatogram ([7]; Rat/Male, [^14C]DMAE 500 mg/kg, Oral): 34%
